The star is where a group is joined. MeOSuc = COC(=O)CCC(=O)*; CH2Cl = ClC*

The record followed here is patent US20090232793A1, “Elastase inhibitor and acute leukemia” (YEDA RESEARCH AND DEVELOPEMENT CO., LTD., priority 2004, published 2009).

Assay [1] deals with primary AML cells. Briefly: cell surface elastase expression by FACS after SDF-1. It counts as cell-based, human. The settings on record: SDF-1 200 ng/ml for 1 and 3 hours. As for the experimental part: (§1) Cell surface elastase on primary AML and cell lines or on normal CB CD34+ enriched cells was analyzed by flow cytometry as follows: AML cells were incubated with polyclonal rabbit anti-human elastase (Biodesign, Kennebunkport, Me.) for 30 min., washed and antibody binding was detected using secondary anti-rabbit-FITC (FIG. 2A upper panel and 2B).
(§2) In order to confirm our assumption, primary AML cells and normal CB CD34+ cells were treated with SDF-1 (200 ng/ml) for 1 and 3 hours, and expression of cell surface elastase was determined by FACS (FIG. 7).
Background: In flow cytometry, cells or beads pass a laser one at a time.

The subject of assay [2] is normal CB CD34+ cells. The description is as above. In kind it is cell-based, human. The settings on record: SDF-1 200 ng/ml for 1 and 3 hours. As for the experimental part: as §1, §2
Assay [3] has as its system AML cells, primary and cell lines. Nature of the assay: in vitro transwell migration assay of AML cells. In kind it is cell-based, human. The note with it: for spontaneous migration: in absence of SDF-1, 30 min pre-treatment, data not shown. As for the experimental part: (§3) (A) In vitro transwell migration assay of AML cells, either untreated or treated for 30 minutes with elastase inhibitor, 10 μg/ml EI (MeOSuc-AAPV-CMK) (A), anti elastase Abs (B) or a1-antitrypsin (a1-AT) (C). […] (D) Immunocytochemical analysis of primary AML cells on poly-L-lysine coated surfaces. Cells were pre-treated for 30 minutes with elastase inhibitor (EI) or left untreated, allowed to adhere in the absence (−) or presence of 200 ng/ml SDF-1, fixed and indirectly immunolabeled with anti-CXCR4 and anti-elastase Ab. Original magnification 100×.
Elastase inhibitor decreases SDF-1 induced migration of AML cells. To study the role of elastase in migration of AML cells, we evaluated the effect of elastase inhibition on spontaneous, or SDF-1-induced AML migration by in vitro transwell assay. The migration assay was carried out as follows: a total of […] RPMI supplemented with 10% FCS in the presence or absence of 125 ng/mL recombinant human SDF-1 (rhSDF-1) (Peprotech, Rocky Hill, N.J.) was added to the lower chamber of a Costar 24-well transwell plates with […] pore filters (Corning, N.Y.). One hundred thousand primary MNC leukemic cells or AML cell lines with or without pretreatment for 30 min. with elastase inhibitor (EI) MeOSuc-AAPV-CMK (10 μg/ml Calbiochem, La jolla, Calif.) or monoclonal mouse anti human neutrophil elastase Ab (50-100 ul of 70 μg/ml, Dako, Glostrup, Denmark) were added to the upper chamber and were allowed to migrate to the lower chamber for 4 hours at 37° C. Migrating cells were collected from the lower chamber and counted using a FACSCalibur (Becton Dickinson).

The subject of assay [4] is normal CD34+ enriched cord blood (CB) cells. Briefly: proliferation and CD34+/38- percentage of normal cord blood cells. It counts as cell-based, human. As for the experimental part: Primary AML cells, AML cell lines and human cord blood (CB) cells with or without 10 μg/ml elastase inhibitor (EI), were cultured for 3-7 days and the number of viable cells was determined using trypan blue exclusion (A). Enriched CD34+ CB cells from full term deliveries were grown in RPMI/10% FCS with SCF, FLT3L and IL6. The percentage of CD34+/38− cells from the total enriched CD34+ CB cells cultured with and without EI was determined by FACS (B).
(§4) To test the role of elastase in proliferation of AML cells, primary AML cells (1×10^6/ml), AML cell lines (1×10^4/ml) or normal CD34+ enriched cord blood (CB) cells (1×10^5/ml) were grown in RPMI supplemented with 10% FCS with or without elastase inhibitor (10 μg/ml). The number of viable cells was determined on days 0, 1, 3, 5 and 7 using trypan blue exclusion.

Assay [5] has as its system ML-2. Nature of the assay: proliferation, viable cells by trypan blue exclusion. It counts as cell-based, human. The settings on record: ML2; EI 10 μg/ml; 7 days in culture. As for the experimental part: as §4
(§5) The effect of EI on the proliferative rate of primary MNC AML cells and AML cell lines (ML-2, U937) was evaluated after 3-7 days respectively in culture. […] After 7 days in culture the number of ML2 and U937 was increased and cell proliferation was inhibited by culturing cells in the presence of EI (FIG. 6A).

The subject of assay [6] is U937. The description is as above. The note with it: EI 10 μg/ml, 7 days in culture. It counts as cell-based, human. As for the experimental part: as §4, §5
The subject of assay [7] is primary AML cells. Described as above. It counts as cell-based, human. The note with it: primary MNC AML cells; EI 10 μg/ml; 3 days in culture. As for the experimental part: as §4, §5
The test system of assay [8] is normal CB enriched CD34+ cells. Briefly: homing of normal CB CD34+ cells to the BM of B2nmull NOD/SCID mice. It counts as in vivo. The settings on record: normal human CD34+ enriched cells; EI pre-treated 10 μg/ml; vs untreated cells. As for the experimental part: (§6) More specifically, human primary AML MNC, enriched CD34+ AML or CB cells at the indicated cell doses were suspended in […] RPMI with 10% FCS incubated for 30 minutes in 37° C. either with or without elastase inhibitor (10 μg/ml) before injection to mice via the dorsal tail vein. Mice were sacrificed 16 hours after transplantation, BM cells flushed from both femurs and tibias bones were harvested and resuspended into single-cell suspension. The percentage of human cells was determined by immunostaining with anti-human CD45-FITC mAB (Immuno Quality Products, Groningen, The Netherlands). Human Fc receptors were blocked with human plasma (1%) and murine Fc receptors by anti-mouse CD16-CD32 (Pharmingen) (1:50). Isotype control antibodies were used in order to exclude false positive cells (BD). After staining, the cells were analyzed on a FACS Calibur (BD) using Cell Quest software.
We next examined the homing of normal enriched CD34+ cells after elastase inhibition. In order to analyze similar primitive stem cell populations, CB CD34+ cells were compared to primary enriched CD34+ AML cells of three other patients (1.5-3×10^6) with different FAB subtypes. As with MNC cells from some patients, inhibition of primary enriched CD34+ AML cells was observed. […]

In assay [9] the test system is HL60 AML cell line. Briefly: egress of engrafted HL60 cells from BM into the circulation of NOD/SCID mice. In kind it is in vivo, human. As for the experimental part: (§7) More specifically, human primary AML MNC cells (10-30×10^6) or HL60 AML cell line (20×10^6) was injected into NOD/SCID mice. Two-four weeks later, EI (1 mg) was injected once a day for 4 consecutive days. PB from mice asphyxiated with dry ice was collected by cardiac aspiration in heparinized tubes and BM was collected as mentioned above. Percentage of human cells was determined by immunofluorescence for CD45 as described above.

The test system of assay [10] is primary AML cells. Briefly: immunocytochemical analysis of protrusions and cell polarization on poly-L-lysine. It counts as cell-based, human. As for the experimental part:
as §3
When leukemic cells were pre-treated with elastase inhibitor (EI), the formation of SDF-1 induced protrusions was prevented (FIG. 3D). Of note, basal cell polarization in absence of SDF-1 was also abolished by EI.

Assay [11] deals with human primary AML MNC cells. Nature of the assay: egress of engrafted primary AML cells from BM into the circulation of NOD/SCID mice. In kind it is in vivo. The note with it: for BM (%) human CD45+ cells / PB (%) human CD45+ cells / PB/BM: EI 1 mg x 4 days. As for the experimental part:
In order to test this assumption, primary AML cells (20-40×10^6) were injected into sublethally irradiated NOD/SCID mice to establish human AML-mice chimerism and AML egress from the bone marrow into the circulation was monitored, two-four weeks later, in mice treated with elastase inhibitor as compared to non treated mice.
as §7

Assay [12] has as its system primary human AML cells. Briefly: homing of human AML cells to the BM of B2nmull NOD/SCID mice. In kind it is in vivo. The note with it: for homing into the NOD/SCID mice BM: 30 min incubation with EI 10 μg/ml before injection, 16 hours. As for the experimental part: In order to assess the effect of elastase inhibition on the in vivo migration (or homing) of human AML cells to the BM, primary AML mononuclear cells (MNC) cells (5×10^6) were injected into sublethally irradiated B2nmull NOD/SCID mice, either untreated or after 30 minute incubation with EI […].
as §6

In assay [13] the test system is AML CXCR4 expression. Briefly: cell surface CXCR4 expression on AML cells by FACS. In kind it is cell-based, human. The note with it: data not shown. From the text: To test whether the decreased migration by elastase inhibition is eventually due to reduction in CXCR4 expression, we examined the effect of elastase inhibition on AML CXCR4 expression. […] Thus, it appears that the role of elastase in migration of AML cells is not working via CXCR4 regulation.

Turning to “SDF-1: chemokine, also called pre-B-cell growth-stimulating factor; recombinant human SDF-1 (Peprotech)”, the results for the “cell surface elastase expression” value in assay [1] and in [2] were “increase” and “decreases”, respectively.
As to a1-antitrypsin, the spontaneous migration result in [3] is “affected”.
For the substance MeOSuc-AAPV-CH2Cl [EI], the spontaneous migration entry in assay [3] is reported as “also reduced”. For the same substance, the “SDF-1 dependent migration of the cells” value in assay [3] (pre-incubation 30 min with 5-10 μg/ml EI, toward 125 ng/ml SDF-1, 4 hours, p=0.039) is listed as “significantly reduced”. In addition, the “percentage of primitive progenitor cells CD34+/38−” value in assay [4] (3 days in culture in the presence of cytokines (SCF, FLT3L, IL6) and EI) is “significantly increased”. Further, the proliferation rate result in assay [4] (normal CB CD34+ cells, EI 10 μg/ml) is given as “enhanced”. Further, the cell proliferation entry in assay [5] and in assay [6] was “inhibited” each time. The “number of viable AML cells” value in [7] was “significantly decreased”. The “homing to the murine BM” value in assay [8] is given as “increased”; in assay [12] (enriched CD34+ AML progenitors, EI pre-treated 10 μg/ml, vs untreated cells), “decreased”. Also, the “BM (%) human CD45+ cells” value in assay [9] (HL-60, EI 1 mg x 4 days) is given as 4%; in [11] (patient #1 M2), 80%; in [11] (patient #2 M4) it was 50%; in assay [11] (patient #3 M4), 12.7%; in [11] (patient #4) it was 16.9%. The “PB (%) human CD45+ cells” value in assay [9] (HL-60, EI 1 mg x 4 days) was 2.4%; in assay [11] (patient #1 M2), 6%; in [11] (patient #2 M4), 2.5%; in assay [11] (patient #3 M4), 0.5%; in assay [11] (patient #4), 0.25%. Also, the PB/BM is given as 0.6 in assay [9] (HL-60, EI 1 mg x 4 days); 0.07 in assay [11] (patient #1 M2); 0.05 in assay [11] (patient #2 M4); 0.039 in assay [11] (patient #3 M4); 0.014 in [11] (patient #4). The “AML cell egress to the PB” value in [9] (human AML line, EI 1 mg once a day, 4 consecutive days, vs untreated mice) is “decreased”; in [11] (human primary cells, EI 1 mg once a day, 4 consecutive days, vs untreated mice), “decreased”. Also, the “formation of SDF-1 induced protrusions” value in assay [10] (30 min pre-treatment, 200 ng/ml SDF-1) was “prevented”. In addition, the basal cell polarization result in assay [10] (in absence of SDF-1) is listed as “abolished”. For the same substance, the “homing into the NOD/SCID mice BM” value is “significantly decreased” in assay [12] (M2 and M4 primary AML cells, vs untreated cells); “not inhibited but rather increased” in assay [12] (primary M1 and M5 AML cells). For the same substance, the “level of cell surface CXCR4 expression” value in [13] is “did not change”.
